Our source for the MIC values is patent publication US11999739B2, “Antimicrobials methods of making and using the same” (BIOVERSYS AG, priority 2016, dated 2024).

As a reminder, the MIC is the least concentration at which growth counts as inhibited. A high value points to a need for much substance.

A value given as a limit tells only on which side of the number the result lay.

Test [1] concerns Staphylococcus aureus (S. aureus) 11540 strain. Kind of test: Standard microdilution MIC assay, S. aureus. The class given is cell-based. The method in brief:
(§1)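 Broth microdilution per CLSI M7-A8 guidelines, with reference-strain quality control run in the same design; MIC determined per strain. Activity scored +/− against a 16 micrograms/mL cutoff.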
On the technique in general: Dilution methods test growth across graded concentrations, often in twofold steps.

Test [2] deals with Escherichia coli strain ATCC25922. The test can be described thus: Standard microdilution MIC assay, E. coli. The class given is cell-based. The method in brief:
as §1

For the molecule `C=C[C@H](N)CCCc1cc(Cl)c(F)c(-c2cc3cn(-c4cc(F)c([C@@H]5CCC[C@@H](CCNC(C)=N)N5)c(SC)c4)c(=O)nc3[nH]2)c1` [Compound 274], the MIC in test [1] and in test [2] was at most 16 µg/mL in each case.
In the case of `COc1cc(-n2cc3cc(-c4cc(CCC[C@@H](N)C5CC5)cc(OC(F)(F)F)c4F)[nH]c3nc2=O)ccc1[C@@H]1CCC[C@@H](CCNC(C)=N)N1` [Compound 234], the MIC in test [1] and in test [2] was at most 16 µg/mL in each case.
In the case of `CC(=N)NCC[C@@H]1CCC[C@@H](c2ccc(-n3cc4cc(-c5cc(CCC[C@@H](N)CC(N)=O)cc(Cl)c5F)[nH]c4nc3=O)cc2)N1` [Compound 156], the MIC in test [1] and in test [2] was at most 16 µg/mL in each case.
Take `N=C(CF)NCC[C@H](CO)NCc1ccc(-n2cc3cc(-c4cc(CCC[C@@H](N)CO)cc(Cl)c4F)[nH]c3nc2=O)cc1` [Compound 84]: the MIC in test [1] and in test [2] was at most 16 µg/mL each time.
Take `CC(=N)NCC[C@@H]1CNC[C@H](c2ccc(-n3cc4cc(-c5cc(CCC[C@H](C)N)cc(Cl)c5F)[nH]c4nc3=O)cc2)N1` [Compound 45]: the MIC in test [1] and in test [2] was at most 16 µg/mL in each case.
In the case of `C=C[C@@H](CCNC(C)=N)NCc1ccc(-n2cc3cc(-c4cc(CCC[C@@H](N)COC)cc(Cl)c4F)[nH]c3nc2=O)cc1` [Compound 187], the MIC in test [1] and in test [2] was at most 16 µg/mL each time.
As for `N=C(CF)NCC[C@H](CO)NCc1ccc(-n2cc3cc(-c4cc(CCC[C@@H](N)C5CC5)cc(Cl)c4F)[nH]c3nc2=O)cc1` [Compound 85], the minimal inhibitory concentration (MIC) in test [1] and in test [2] was at most 16 µg/mL throughout.
As to `COC[C@H](N)CCCc1cc(OC(F)(F)F)c(F)c(-c2cc3cn(-c4ccc([C@@H]5CCC[C@@H](CCNC(C)=N)N5)cc4)c(=O)nc3[nH]2)c1` [Compound 195], the minimum inhibitory concentration (MIC) in test [1] and in test [2] was at most 16 µg/mL each time.
In the case of `CC(=N)N[C@H](C)C[C@@H]1CCC[C@@H](c2ccc(-n3cc4cc(-c5cc(CCC[C@@H](N)C6CC6)cc(Cl)c5F)[nH]c4nc3=O)cc2)N1` [Compound 257], the MIC in test [1] and in test [2] was at most 16 µg/mL each time.
Consider `CC(=N)NC[C@@H]1CCC[C@@H](c2ccc(-n3cc4cc(-c5cc(CCC[C@H](C)N)cc(Cl)c5F)[nH]c4nc3=O)cc2)N1` [Compound 363], for which the minimum inhibitory concentration (MIC) in test [1] and in test [2] was at most 16 µg/mL throughout.
As to `C[C@H](N)CCCc1cc(Cl)c(F)c(-c2cc3cn(-c4ccc([C@H](C)NCCCNC(=N)CF)c(F)c4)c(=O)nc3[nH]2)c1` [Compound 94], the MIC in test [1] and in test [2] was at most 16 µg/mL throughout.
In the case of `C=C[C@H](N)CCCc1cc(Cl)c(F)c(-c2cc3cn(-c4cc(F)c([C@@H]5CCC[C@@H](CCNC(C)=N)N5)c(OC)c4)c(=O)nc3[nH]2)c1` [Compound 320], the MIC in test [1] and in test [2] was at most 16 µg/mL each time.
For the molecule `CC(=N)NCC[C@H](CO)N[C@@H](C)c1ccc(-n2cc3cc(-c4cc(CCC[C@@H](N)CO)cc(Cl)c4F)[nH]c3nc2=O)cc1F` [Compound 163], the MIC in test [1] and in test [2] was at most 16 µg/mL in each case.
Take `COC[C@H](N)CCCc1cc(-c2cc3cn(-c4ccc([C@@H]5CCC[C@@H](C[C@@H](C)NC(C)=N)N5)cc4)c(=O)nc3[nH]2)c(F)c(C(F)(F)F)c1` [Compound 339]: the MIC in test [1] and in test [2] was at most 16 µg/mL throughout.
For the molecule `CSc1cc(-n2cc3cc(-c4cc(CCC(F)(F)CN)cc(Cl)c4F)[nH]c3nc2=O)ccc1[C@@H]1CCC[C@@H](CCNC(C)=N)N1` [Compound 129], the minimum inhibitory concentration (MIC) in test [1] and in test [2] was at most 16 µg/mL throughout.
As for `C=CC(CCNC(=N)CSC)NCc1ccc(-n2cc3cc(-c4cc(CCC[C@H](C)N)cc(Cl)c4F)[nH]c3nc2=O)cc1` (stereo partly drawn) [Compound 9], the MIC in test [1] and in test [2] was at most 16 µg/mL in each case.
For `CC(=N)NCC[C@@H]1CCC[C@@H](c2ccc(-n3cc4cc(-c5cc(CCC[C@@H](N)C6CC6)cc(C(F)(F)F)c5)[nH]c4nc3=O)cc2F)N1` [Compound 211], the minimal inhibitory concentration (MIC) in test [1] and in test [2] was at most 16 µg/mL each time.
On to `CSc1cc(-n2cc3cc(-c4cc(CCC[C@H](C)N)cc(C(F)(F)F)c4)[nH]c3nc2=O)ccc1[C@@H]1CCC[C@@H](CCNC(C)=N)N1CCCF` [Compound 292], for which the MIC in test [1] and in test [2] was at most 16 µg/mL in each case.
Turning to `COc1cc(-n2cc3cc(-c4cc(CCC[C@@H](N)CO)cc(C(F)(F)F)c4F)[nH]c3nc2=O)cc(F)c1[C@@H]1CCC[C@@H](CCNC(C)=N)N1` [Compound 323], the MIC in test [1] and in test [2] was at most 16 µg/mL in each case.
For the molecule `CC(=N)NCC[C@@H](NCc1ccc(-n2cc3cc(-c4cc(CCC[C@@H](N)C5CC5)cc(Cl)c4F)[nH]c3nc2=O)cc1)C1CC1` [Compound 219], the minimum inhibitory concentration (MIC) in test [1] and in test [2] was at most 16 µg/mL in each case.
For the molecule `CSc1cc(-n2cc3cc(-c4cc(CCC[C@@H](N)C5CC5)cc(C(F)(F)F)c4)[nH]c3nc2=O)ccc1[C@@H]1CCC[C@@H](CCNC(C)=N)N1` [Compound 250], the minimal inhibitory concentration (MIC) in test [1] and in test [2] was at most 16 µg/mL each time.
Turning to `CC(=N)NCC[C@@H]1CCC[C@@H](c2ccc(-n3cc4cc(-c5cc(CCC[C@@H](N)C6CC6)cc(Cl)c5F)[nH]c4nc3=O)cn2)N1` [Compound 248], the minimum inhibitory concentration (MIC) in test [1] and in test [2] was at most 16 µg/mL in each case.
With `C=C[C@@H](CCNC(=N)COC)NCc1ccc(-n2cc3cc(-c4cc(CCC[C@H](C)N)cc(Cl)c4F)[nH]c3nc2=O)cc1` [Compound 53], the MIC in test [1] and in test [2] was at most 16 µg/mL in each case.
`C=C[C@@H](CCNC(C)=N)NCc1ccc(-n2cc3cc(-c4cc(CCC[C@@H](N)C(F)F)cc(Cl)c4F)[nH]c3nc2=O)cc1` [Compound 140]: the minimal inhibitory concentration (MIC) in test [1] and in test [2] was at most 16 µg/mL in each case.
In the case of `C=C[C@@H](N)CCCc1cc(Cl)c(F)c(-c2cc3cn(-c4ccc([C@H](C)NCCCNC(C)=N)c(F)c4)c(=O)nc3[nH]2)c1` [Compound 92], the MIC in test [1] and in test [2] was at most 16 µg/mL in each case.
Turning to `COC[C@H](N)CCCc1cc(OC(F)(F)F)c(F)c(-c2cc3cn(-c4ccc([C@@H]5CCC[C@@H](CCNC(C)=N)N5)c(OC(F)(F)F)c4)c(=O)nc3[nH]2)c1` [Compound 233], the MIC in test [1] and in test [2] was at most 16 µg/mL in each case.
For `C=C[C@@H](N)CCCc1cc(Cl)c(F)c(-c2cc3cn(-c4ccc(CN[C@@H](C=C)CCNC(C)=N)cc4)c(=O)nc3[nH]2)c1` [Compound 30], the minimum inhibitory concentration (MIC) in test [1] and in test [2] was at most 16 µg/mL each time.
For `CC(=N)NCC[C@@H]1CCC[C@@H](c2ccc(-n3cc4cc(-c5cc(CCC[C@@H](N)CF)cc(OC(F)(F)F)c5F)[nH]c4nc3=O)cc2)N1` [Compound 236], the minimum inhibitory concentration (MIC) in test [1] and in test [2] was at most 16 µg/mL each time.
Take `COC[C@H](N)CCCc1cc(OC(F)(F)F)c(F)c(-c2cc3cn(-c4ccc(CN[C@H](CCNC(C)=N)C5CC5)cc4)c(=O)nc3[nH]2)c1` [Compound 223]: the minimum inhibitory concentration (MIC) in test [1] and in test [2] was at most 16 µg/mL each time.
For `CC(=N)NCC[C@H](CO)NCc1ccc(-n2cc3cc(-c4cc(CCC[C@@H](N)C5CC5)cc(Cl)c4F)[nH]c3nc2=O)cc1` [Compound 79], the MIC in test [1] and in test [2] was at most 16 µg/mL each time.
On to `C=CCC(=N)NCCC(C=C)NCc1ccc(-n2cc3cc(-c4cc(CCC[C@H](C)N)cc(Cl)c4F)[nH]c3nc2=O)cc1` (stereo partly drawn) [Compound 33], for which the MIC in test [1] and in test [2] was at most 16 µg/mL throughout.
Consider `CC(=N)NCC[C@@H]1CCC[C@@H](c2ccc(-n3cc4cc(-c5cc(CCC[C@H](C)N)cc(Cl)c5F)[nH]c4nc3=O)cc2F)N1CCCF` [Compound 325], for which the minimum inhibitory concentration (MIC) in test [1] and in test [2] was at most 16 µg/mL throughout.
In the case of `CC(=N)NCC[C@@H]1CCC[C@@H](c2ccc(-n3cc4cc(-c5cc(F)c(C(F)(F)F)c(CCC[C@H](C)N)c5)[nH]c4nc3=O)cc2)N1` [Compound 318], the MIC in test [1] and in test [2] was at most 16 µg/mL in each case.
`C=C[C@H](N)CCCc1cc(Cl)c(F)c(-c2cc3cn(-c4ccc([C@@H]5CCC[C@@H](CCNC(C)=N)N5)c(C)c4)c(=O)nc3[nH]2)c1` [Compound 259]: the MIC in test [1] and in test [2] was at most 16 µg/mL each time.
For the molecule `CC(=N)NCCCN[C@@H](C)c1ccc(-n2cc3cc(-c4cc(CCCC5(N)CC5)cc(Cl)c4F)[nH]c3nc2=O)cc1F` [Compound 148], the minimum inhibitory concentration (MIC) in test [1] and in test [2] was at most 16 µg/mL each time.
Take `CC(=N)NCC[C@@H]1CCC[C@@H](c2ccc(-n3cc4cc(-c5cc(CCC[C@@H](N)C6CC6)cc(OC(F)(F)F)c5F)[nH]c4nc3=O)cc2OC(F)(F)F)N1` [Compound 213]: the MIC in test [1] and in test [2] was at most 16 µg/mL throughout.
As for `CC(C)(CN)CCc1cc(Cl)c(F)c(-c2cc3cn(-c4ccc(CNCCCNC(=N)CF)c(F)c4)c(=O)nc3[nH]2)c1` [Compound 74], the minimum inhibitory concentration (MIC) in test [1] and in test [2] was at most 16 µg/mL each time.
As to `COC[C@H](N)CCCc1cc(-c2cc3cn(-c4ccc(CN[C@H](CCNC(C)=N)C5CC5)cc4)c(=O)nc3[nH]2)cc(C(F)(F)F)c1` [Compound 222], the MIC in test [1] and in test [2] was at most 16 µg/mL in each case.
As for `CC(=N)NCC[C@@H]1CCC[C@@H](c2ccc(-n3cc4cc(-c5cc(CCC[C@@H](N)C6CC6)cc(Cl)c5F)[nH]c4nc3=O)cc2)N1CCCF` [Compound 334], the MIC in test [1] and in test [2] was at most 16 µg/mL in each case.
Turning to `CC(=N)NCC[C@@H]1CCC[C@@H](c2ccc(-n3cc4cc(-c5cc(CCC[C@@H](N)C(F)(F)F)cc(Cl)c5F)[nH]c4nc3=O)cc2)N1` [Compound 63], the minimal inhibitory concentration (MIC) in test [1] and in test [2] was at most 16 µg/mL each time.
Consider `COc1ccc(CCC[C@H](C)N)cc1-c1cc2cn(-c3ccc([C@@H]4CCC[C@@H](CCNC(C)=N)N4)cc3)c(=O)nc2[nH]1` [Compound 377], for which the minimum inhibitory concentration (MIC) in test [1] and in test [2] was at most 16 µg/mL in each case.
Turning to `C[C@H](N)CCCc1cc(Cl)c(F)c(-c2cc3cn(-c4ccc([C@@H]5COC[C@@H](CCNC(=N)CF)N5)cc4)c(=O)nc3[nH]2)c1` [Compound 75], the minimal inhibitory concentration (MIC) in test [1] and in test [2] was at most 16 µg/mL throughout.
